Measured values published in patent US12686668B2, “Leukotriene synthesis inhibitors” (Naegis Pharmaceuticals Inc., priority 2019, dated 2026).

Experiments:
[1] = test system: LTB4 production in MC/9 cells; experiment: MC/9 HPLC assay, inhibition of LTB4 production; assay type: cell-based; conditions: Mus musculus, MC9, Table 2 column 4, no concentration in head (1 μM according to b732), read-out: % Inhibition LTB4
Experimental: (§1) Cultured MC/9 cells (3×10^6 cells) in 1 mL HBSS were pre-incubated with a series of concentrations of compound solubilized in DMSO for 30 minutes. Production of leukotrienes were stimulated with the addition of 1 μM calcium ionophore (A23187), diluted from a 4 mM DMSO stock in HBSS, and incubated at room temperature for 20 minutes. The reaction was stopped with the addition of 500 μL of methanol containing 20 ng/mL prostaglandin B2 as an internal standard. Samples were collected and stored at −20° C. at least 2 hr or overnight before centrifuged at 13,000 rpm for 15 minutes and loaded onto C18 SEP-PAK columns (Canadian Lifesciences IS12000) for solid phase extraction. The leukotrienes were analyzed by HPLC using an ACE C18 column (4.5 mm×150 mm, 5 m) eluted with acetonitrile/methanol/water mixture with H3PO4, pH 3.5 (37:26:37) with a flow rate of 1.8 mL/min. The amount of LTB4 (Cayman Chemical, 20110) and LTC4 (Cayman Chemical, 20210) were calculated based on reference standards and the level of inhibition of LTB4 production induced by the test compounds was calculated relative to control samples. The results are provided in Table 2, where Compound No. refers to the compounds identified in Table 1.

[2] = test system: LTB4 production in porcine or human whole blood; experiment: Whole blood HPLC assay, inhibition of LTB4 production; assay type: cell-based; conditions: 5 point curve, porcine or human whole blood (not specified)
Experimental: Porcine or human whole blood (1 mL) was pre-incubated with a series of concentrations of compound solubilized in DMSO for 30 minutes. Production of leukotrienes were stimulated with the addition of 20 μM calcium ionophore (A23187), diluted from a 4 mM DMSO stock in HBSS, and incubated at room temperature for 20 minutes. In porcine blood 20 μM arachidonic acid was added in addition to the calcium ionophore. The blood was centrifuged at 2,000 rpm for 15 minutes, and the plasma fraction removed for further processing. Plasma samples were diluted with 500 μL acidified water (HCl pH 3.0) and loaded onto C18 SEP-PAK columns (Canadian Lifesciences IS12000) for solid phase extraction. The leukotrienes were analyzed by HPLC using an ACE C18 column (4.5 mm×150 mm, 5 m) eluted with acetonitrile/methanol/water mixture with H3PO4, pH 3.5 (37:26:37) with a flow rate of 1.8 mL/min. The amount of LTB4 (Cayman Chemical, 20110) was calculated based on reference standards and the level of inhibition of LTB4 production induced by the test compounds was calculated relative to control samples. The results provided in Table 3 are IC50 values calculated based on a 5 point curve, where Compound No. refers to the compounds identified in Table 1.

[3] = test system: LTC4 production in MC/9 cells; experiment: MC/9 HPLC assay, inhibition of LTC4 production; assay type: cell-based; conditions: Mus musculus; for inhibition at 1 µM: MC9, Table 2 column 3, no concentration in head (1 μM according to b732), read-out: % Inhibition LTC4; for inhibition at 3 µM: MC9, 3 μM, A23187 stimulated
Experimental: as §1

[4] = target: T1, recombinant human leukotriene A4 hydrolase enzyme (Homo sapiens, UniProt P09960); experiment: Amino-peptidase assay, alanine-4-nitroanalide; assay type: biochemical; conditions: negative values = augmented peptidase activity, read-out: % Inhibition aminopeptidase-Alanine-4-nitroanalide activity of LTA4H (3 μM)
T1 construct: purchased Cayman Chemical 10007817
T1 sequence (P09960 1-611): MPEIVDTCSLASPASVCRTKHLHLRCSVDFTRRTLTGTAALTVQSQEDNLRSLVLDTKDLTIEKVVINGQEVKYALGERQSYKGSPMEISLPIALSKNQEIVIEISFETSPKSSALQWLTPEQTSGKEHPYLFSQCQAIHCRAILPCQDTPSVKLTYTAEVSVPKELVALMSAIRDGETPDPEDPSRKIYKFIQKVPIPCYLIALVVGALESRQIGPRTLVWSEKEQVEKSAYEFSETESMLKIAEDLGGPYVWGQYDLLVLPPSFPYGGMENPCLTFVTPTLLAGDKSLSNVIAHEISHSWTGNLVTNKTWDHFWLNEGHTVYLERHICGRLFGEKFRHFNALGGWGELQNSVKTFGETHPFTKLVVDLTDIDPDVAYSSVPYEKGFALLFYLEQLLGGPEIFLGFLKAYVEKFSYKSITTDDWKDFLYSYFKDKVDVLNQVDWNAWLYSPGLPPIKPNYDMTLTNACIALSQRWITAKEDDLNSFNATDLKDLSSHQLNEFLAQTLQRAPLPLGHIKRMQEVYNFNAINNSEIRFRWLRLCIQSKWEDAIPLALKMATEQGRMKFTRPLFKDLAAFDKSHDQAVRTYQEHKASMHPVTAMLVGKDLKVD
Experimental: A series of compound concentrations were pre-incubated in the absence of light with 0.5 μg of recombinant human leukotriene A4 hydrolase enzyme (Cayman Chemical 10007817) in 50 μL assay buffer (50 mM Tris-HCl, 100 mM KCl). The reaction was stimulated by adding 50 μL 6 mM alanine-4-nitroanilide (Sigma Aldrich A9325) in assay buffer. The amount of amino-peptidase activity was measured by determining the change in absorbance at 405 nm due to 4-nitroanaline production and comparing the rate of change to a reference standard (Sigma Aldrich 185310). Amino-peptidase activity was compared to control samples and the level of inhibition was calculated. Compounds that augment peptidase activity are represented by negative values.

Structure (SMILES) | IC50 [2] [µM] | inhibition at 3 µM [4] [%] | inhibition at 1 µM [1] [%] | inhibition at 1 µM [3] [%] | inhibition at 3 µM [3] [%]
CC(CCc1ccc(Oc2nc3ccccc3s2)cc1)N1CCCC1 (stereo not shown) [Compound 156, 2-{4-[3-(pyrrolidin-1-yl)butyl]phenoxy}-1,3-benzothiazole] | 0.1 to 1 |  | > 90 | < 10 | 
CCC(O)(CCc1ccc(Oc2nc3ccccc3s2)c(C(F)(F)F)c1)C(F)(F)F (stereo not shown) [Compound 155, 1-[4-(1,3-benzothiazol-2-yloxy)-3-(trifluoromethyl)-phenyl]-3-(trifluoromethyl)-pentan-3-ol] | > 10 |  | 10 to 30 | < 10 | 
CCC(O)(CCc1ccc(Oc2nc3ccc(S(C)(=O)=O)cc3s2)c(OC)c1)C(F)(F)F (stereo not shown) [Compound 106, 1-{3-methoxy-4-[(6-methylsulfonyl-1,3-benzothiazol-2-yl)oxy]phenyl}-3-(trifluoromethyl)pentan-3-ol] | > 10 |  | 10 to 30 | 10 to 30 | 30 to 50
CCC(O)(CCc1ccc(Oc2nc3ccccc3s2)c(OCC2CC2)c1)C(F)(F)F (stereo not shown) [Compound 117, 1-[4-(1,3-benzothiazol-2-yloxy)-3-(cyclopropyl-methoxy)-phenyl]-3-(trifluoromethyl)-pentan-3-ol] | > 10 |  | 70 to 90 | 30 to 50 | 
COc1cc(C(O)C(F)(F)F)ccc1Oc1nc2c(SC)cccc2s1 (stereo not shown) [Compound 139, 2,2,2-trifluoro-1-(3-methoxy-4-{[4-(methylsulfanyl)-1,3-benzothiazol-2-yl]oxy}phenyl)ethanol] | 1 to 10 |  |  |  | > 90
CCC(O)(CCc1ccc(Oc2nc3ccccc3s2)c(OC(C)C)c1)C(F)(F)F (stereo not shown) [Compound 115, 1-[4-(1,3-benzothiazol-2-yloxy)-3-(iso-propyloxy)phenyl]-3-(trifluoromethyl)pentan-3-ol] | > 10 |  | < 10 | < 10 | < 10
CCNC(c1ccc(Oc2nc3ccccc3s2)c(OC)c1)C(F)(F)F (stereo not shown) [Compound 138, 1-[4-(1,3-benzothiazol-2-yloxy)-3-methoxyphenyl]-N-ethyl-2,2,2-trifluoroethanamine] | 1 to 10 |  | 10 to 30 | 30 to 50 | 70 to 90
CCC(C)(O)CCc1ccc(Oc2nc3ccccc3o2)cc1 (stereo not shown) [Compound 146, 1-[4-(1,3-benzoxazol-2-yloxy)phenyl]-3-methylpentan-3-ol] | 1 to 10 | < 25 | > 90 | 10 to 30 | 
COc1cc(C(O)C(F)(F)F)ccc1Oc1nc2ccccc2s1 (stereo not shown) [Compound 137, 1-[4-(1,3-benzothiazol-2-yloxy)-3-methoxyphenyl]-2,2,2-trifluoroethanol] | > 10 |  | 10 to 30 |  | 50 to 70
COc1cc(CCC(O)c2ccccc2)ccc1Oc1nc2ccccc2s1 (stereo not shown) [Compound 132, 3-[4-(1,3-benzothiazol-2-yloxy)-3-methoxyphenyl]-1-phenylpropan-1-ol] | > 10 |  | > 90 | 70 to 90 | 
CC(O)(c1ccc(Oc2nc3ccccc3s2)cc1)C(F)(F)F (stereo not shown) [Compound 163, 2-[4-(1,3-benzothiazol-2-yloxy)phenyl]-1,1,1-trifluoropropan-2-ol] | > 10 |  |  |  | 10 to 30
CCC(O)(CCc1ccc(Oc2nc3c(F)cc(F)cc3s2)c(OC)c1)C(F)(F)F (stereo not shown) [Compound 107, 1-{4-[(4,6-difluoro-1,3-benzothiazol-2-yl)oxy]-3-methoxyphenyl}-3-(trifluoromethyl)pentan-3-ol] | > 10 |  | > 90 | 70 to 90 | > 90
CC(CCc1ccc(Oc2nc3ccccc3s2)cc1)N1CCCC1C(=O)O (stereo not shown) [Compound 157, 1-{4-[4-(1,3-benzothiazol-2-yloxy)phenyl]butan-2-yl}pyrrolidine-2-carboxylic acid] | 1 to 10 |  | 70 to 90 | < 10 | 
CC(O)CCc1ccc(Oc2nc3ccccc3s2)cc1 (stereo not shown) [Compound 141, 4-[4-(1,3-benzothiazol-2-yloxy)phenyl]butan-2-ol] | 1 to 10 |  | > 90 | 10 to 30 | 

Further lines, with some results ahead:

IC50 [2] [µM] | inhibition at 3 µM [4] [%] | Structure (SMILES) | inhibition at 1 µM [1] [%] | inhibition at 1 µM [3] [%] | inhibition at 3 µM [3] [%]
0.1 to 1 | < 25 | OC(c1ccc(Oc2nc3ccccc3s2)cc1)C(F)(F)F (stereo not shown) [Compound 166, 1-[4-(1,3-benzothiazol-2-yloxy)phenyl]-2,2,2-trifluoroethanol] |  |  | 30 to 50
> 10 |  | COc1cc(C(C)(O)C(F)(F)F)ccc1OCc1ccc2ccccc2n1 (stereo not shown) [Compound 199, 1,1,1-trifluoro-2-[3-methoxy-4-(quinolin-2-ylmethoxy)phenyl]propan-2-ol] |  |  | 30 to 50
0.1 to 1 | > 75 | c1ccc2sc(Oc3ccc(CN4CCCC4)cc3)nc2c1 [Compound 164, 2-[4-(pyrrolidin-1-ylmethyl)phenoxy]-1,3-benzothiazole] |  |  | < 10
0.1 to 1 |  | CCC(O)(CCc1ccc(OCc2ccc3ccccc3n2)c(OC)c1)C(F)(F)F (stereo not shown) [Compound 198] |  |  | 30 to 50
0.1 to 1 |  | CCC(O)(CCc1ccc(OCc2ccc3ccccc3n2)cc1)C(F)(F)F (stereo not shown) [Compound 185, 1-[4-(quinolin-2-ylmethoxy)-phenyl]-3-(trifluoromethyl)-pentan-3-ol] |  |  | 70 to 90
0.1 to 1 |  | CC(O)(c1ccc(OCc2ccc3ccccc3n2)cc1)C(F)(F)F (stereo not shown) [Compound 197, 1,1,1-trifluoro-2-[4-(quinolin-2-ylmethoxy)phenyl]propan-2-ol] |  |  | > 90
> 10 | > 75 | OC(c1ccc(Oc2nc3ccccc3s2)c(Cl)c1)C(F)(F)F (stereo not shown) [Compound 167, 1-[4-(1,3-benzothiazol-2-yloxy)-3-chlorophenyl]-2,2,2-trifluoroethanol] | 10 to 30 | 10 to 30 | 10 to 30
